Measurements from US20110064773A1, “PHARMACEUTICAL COMPOSITIONS COMPRISING A THYROID HORMON AND THEIR THERAPEUTIC USE” (UNIVERSITE JOSEPH FOURIER, priority 2007, published 2011).
“Also recorded” adds a separate entry of the source.

Key:
ZDF rats [1] = assay: Body composition of ZDF rats; format: in vivo, rat
From the text: (§1) At the end of the experimental period, animals were sacrificed by decapitation, in order to avoid the well-known effects of general anesthetics on mitochondrial metabolism. Blood samples were immediately collected and plasma was frozen for subsequent determination of serum metabolites and hormones. Liver, muscles and fat depots were quickly excised and weighed. Liver median lobe was rapidly freeze-clamped. Muscles (plantaris, soleus and gastrocnemius) were frozen in isopentane precooled in liquid nitrogen. Mesenteric fat consisted of adipose tissue surrounding the gastro-intestinal tract from the gastro-oesophageal sphincter to the end of the rectum with special care taken in distinguishing and removing the pancreas. Retroperitoneal fat pad was taken as the distinct depot behind each kidney along the lumbar muscles. Epididymal fat consisted of adipose tissue on top of the epididymis. For subcutaneous depot measurement, a rectangular piece of skin was taken on the right side of each animal from the median line of the abdomen between the spine and the right hip to the first rib. Interscapular brown adipose tissue was removed and dissected free from adjacent muscles and white adipose tissue. The heart ventricles, the right kidney and the spleen were also excised, weighed and frozen.

Wistar rats [2] = assay: De novo hepatic lipogenesis (stable isotopes); format: in vivo, rat; conditions: rT3 2.5 μg/100 g BW
From the text: To confirm this point, the rate of endogenous triglyceride synthesis by using stable isotopes has been assessed.

ZDF rats [3] = assay: Body weight and food intake of ZDF rats; format: in vivo, rat; conditions: 2.5 μg/100 g BW/day, 21 days
Method: Adult male rat bred in the animal room facilities of Laboratory of Fundamental and Applied Bioenergetics (Wistar strain) or purchased from Charles-River Laboratories, Domaine des oncins, L'ARBRESLE France [(genetically obese normoglycemic (Zucker or Fa/Fa) or diabetic (ZDF)] were caged individually in stainless steel hanging cages and maintained in a 22° C., 50±10% relative humidity and 12 h:12 h light:dark environment. All animals were fed ad libitum with a standard rat chow (Safe A04, Villemoisson, France) and tap water. Body mass and food intake were recorded twice/thrice a week and fresh food was provided at the same time to ensure minimal disturbance to the animals' food behavior.
Then ZDF rats were treated with low doses of rT3 for 21 days (2.5 μg/100 g BW/day) and the glycaemia, insulinaemia were measured after 8, 16 and 21 days.

GK rats = assay: Oral glucose tolerance test (OGTT) and pancreas mass in GK rats; format: in vivo, rat; conditions: 2.5 μg/100 g BW
Method: GK rats are diabetic non obese with moderate insulin-resistance, and have lower pancreatic cells than control rats. The pancreatic cells are also less efficient in the insulin secretion.
(§2) The glucose resistance of these animals was tested by an oral glucose tolerance test (OGTT) Animals were fed with 2 g/kg BW of glucose and the Glucose concentration and Insulin concentration in blood were measured.
The glucose concentration (FIG. 40) and insulin concentration (FIG. 41) were then measured for this time.

n0STZ rats = assay: Oral glucose tolerance test (OGTT) and pancreas mass in n0STZ rats; format: in vivo, rat; conditions: 2.5 μg/100 g BW
Method: N0STZ rats are diabetic non obese with moderate insulin-resistance, and have received an injection of streptozotocine just after the birth, said product killing pancreatic cells.
as §2
The glucose concentration (FIG. 35) and insulin concentration (FIG. 36) were then measured for this time.

Wistar rats [4] = assay: Oral glucose tolerance test (OGTT) and pancreas mass in non-diabetic Wistar rats; format: in vivo, rat; conditions: 2.5 μg/100 g BW, vs placebo
Method: Wistar rats are non-diabetic, non-obese without insulin-resistance, however like in humans, they tend to get slightly obese and insulin resistant with age. However this is supposed to be “physiological”.
The glucose resistance of these animals was tested by an oral glucose tolerance test (OGTT). Animals were fed with 2 g/kg BW of glucose and the Glucose concentration and Insulin concentration in blood were measured.

Wistar rats [5] = assay: Plasma concentrations of glucose, triglycerides, cholesterol, FFA and HDL in Wistar rats; format: in vivo, rat; conditions: for Glycerol (FIG. 60C), plasma / HDL (FIG. 60D), plasma: 21 days
From the text: These measurements were done on venous blood of the rats the day of the sacrifice.
as §1
Glucose and 3-hydroxybutyrate (3-HB) were measured enzymatically and non esterified fatty acid (NEFA) by colorimetric assay (Wako Chemicals).
Triglycerides and cholesterol were measured by classical routine automate apparatus.

[6] = system: nuclear receptors of the thyroid hormones, TRα-1 and TRβ-1; conditions: literature statements; cited from earlier work
muscle mitochondria = assay: Rate of muscle mitochondrial oxygen consumption (JO2) of treated Wistar rats; format: in vivo, rat; conditions: 250 μg/kg BW/day, vs placebo
Method: The major part of the liver and the red part of each quadriceps were rinsed, and chopped into isolation medium (250 mM sucrose, 20 mM Tris-HCl and 1 mM EGTA-Tris, pH 7.4). Nuclei and cell debris were removed by centrifugation at 800 g for 10 min. Mitochondria were then isolated from the supernatant by spinning twice at 8,000 g for 10 minutes. The mitochondrial pellet was resuspended in 0.5 ml of isolation buffer and kept on ice. Mitochondrial protein was measured by the bicinchoninic acid method (Pierce, Rockford, Ill.). The final mitochondrial suspensions were maintained on ice and were used for measurements of oxygen consumption rate.
The rate of mitochondrial oxygen consumption (JO2) was measured at 30° C. in an incubation chamber with a Clark-type O2 electrode filled with 2 ml of incubation medium (125 mM KCl, 10 mM Pi-Tris, 20 mM Tris-HCl, 0.1 mM EGTA, pH 7.2). All measurements were performed using mitochondria (1.0 or 0.2 mg mitochondrial protein/ml for liver and skeletal muscle) incubated either with various substrates: glutamate/malate (5 mM/2.5 mM) and succinate (5 mM), alone or in combination, palmitoyl carnitine (55 μM) and octanoyl carnitine (100 μM). For each substrate, JO2 was recorded in the presence of the substrate alone (State 2) and following the addition of 1 mM ADP (state 3). Oligomycin (1.25 μg/mg protein) was added to the mitochondrial suspension to determine the non-phosphorylating respiratory rate (state 4). The incubation medium was constantly stirred with a built-in electromagnetic stirrer and bar flea. The efficiency of the mitochondrial oxidative phosphorylation was assessed by the state 3/state 4 ratio which measures the degree of control imposed on oxidation by phosphorylation (respiratory control ratio, RCR).

[7] = 2 g/kg glucose, 3 hours, vs placebo
[8] = 5 first minutes following the OGTT
[9] = Wistar rats, high dosage 25 μg/100 g BW
[10] = Wistar rats, high dose 250 μg/kg BW/day, day of sacrifice, vs placebo
[11] = Wistar rats, low dosage 2.5 μg/100 g BW

SMILES: N[C@@H](Cc1ccc(Oc2cc(I)c(O)c(I)c2)c(I)c1)C(=O)O [rT3, 3′,5′,3-triiodothyronine]
- Brown adipose tissue mass (ZDF rats [1]; 2.5 μg/100 g BW): increase
- Muscular mass (ZDF rats [1]; 2.5 μg/100 g BW): not affected
- White adipose tissue (ZDF rats [1]; 2.5 μg/100 g BW): seems not to be affected
- Fat mass (photography, FIG. 21) (ZDF rats [1]; low dose of rT3, 21 days, vs placebo): reduced
- Endogenous (liver) synthesis of lipids (Wistar rats [2]; day and night, effect maximal during the day): powerful stimulation
- Hepatic lipogenesis, increase (Wistar rats [2]; vs placebo): ~4 fold
- Appetite (food intake) (ZDF rats [3]): not associated with a loose of appetite
- Animal mass (body weight) (ZDF rats [3]; vs placebo): slimmer; also recorded: reduced
- AUC of the glucose concentration after OGTT (GK rats; [7]): significantly reduced
- AUC of the insulin concentration after OGTT (GK rats; [7]): largely enhanced
- Kinetic of blood glucose concentration after OGTT (GK rats; [8]): regulate more rapidly
- Kinetic of insulin concentration after OGTT (GK rats; 20 min kinetic): increase
- Pancreas mass (GK rats; vs placebo): increase
- AUC of the glucose concentration after OGTT (n0STZ rats; [7]): significantly reduced
- AUC of the insulin concentration after OGTT (n0STZ rats; [7]): largely enhanced
- Kinetic of blood glucose concentration after OGTT (n0STZ rats; [8]): regulate more rapidly
- Kinetic of insulin concentration after OGTT (n0STZ rats; 20 min kinetic): high increase
- Pancreas mass (n0STZ rats; vs placebo): increase
- AUC of the glucose concentration after OGTT (Wistar rats [4]; 2 g/kg glucose, 3 hours): slightly reduced, however not significantly
- AUC of the insulin concentration after OGTT (Wistar rats [4]; 2 g/kg glucose, 3 hours): significantly lower
- Pancreas mass (Wistar rats [4]): moderate, albeit significant, increase
- Cholesterol plasmatic concentration (Wistar rats [5]; Wistar rats, 250 μg/kg BW/day, day of sacrifice, vs placebo): significantly lower
- Glycerol (FIG. 60C), plasma (Wistar rats [5]; [9]): reduction
- HDL (FIG. 60D), plasma (Wistar rats [5]; [9]): reduction
- Plasma free fatty acids (FFA) (Wistar rats [5]; [10]): higher; also recorded: stimulates the liberation of FFA
- Triglycerides plasmatic concentration (Wistar rats [5]; [10]): significantly lower; also recorded: degradation of triglycerides
- Glycerol (FIG. 60C), plasma (Wistar rats [5]; [11]): reduction
- HDL (FIG. 60D), plasma (Wistar rats [5]; [11]): reduction
- Fasting glucose plasmatic concentration (Wistar rats [5]; normal (non diabetic) Wistar rats, 250 μg/kg BW/day, day of sacrifice, vs placebo): slightly increased
- Binding to the nuclear (TH) receptors [6]: very little affinity
- Muscle mitochondrial respiration, non-phosphorylating (state 4) (muscle mitochondria): failed to substantially affect
- Muscle mitochondrial respiration, phosphorylating (state 3) (muscle mitochondria): failed to substantially affect
